Measured values from ChEMBL document CHEMBL1201862, “PubChem BioAssay data set” (2004).
Each block holds one compound with its values, some of them ahead of it. Active and inactive are the calls of the source.

Assays:
[1] = biological target: Phosphorylase b kinase gamma catalytic chain, liver/testis isoform (Homo sapiens, UniProt P15735); assay type: functional;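 further: PHKG2 measured as one member of a kinome-wide kinase panel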
[2] = biological target: RAC-gamma serine/threonine-protein kinase (Homo sapiens, UniProt Q9Y243); assay type: functional
[3] = biological target: Serine/threonine-protein kinase D2 (Homo sapiens, UniProt Q9BZL6); assay type: functional;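 further: measured against PRKD2 as one member of a kinome-wide kinase profiling panel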
[4] = biological target: Rho-associated protein kinase 2 (Homo sapiens, UniProt O75116); assay type: functional
SRSF protein kinase 1 = SRSF protein kinase 1 (Homo sapiens, UniProt Q96SB4); assay type: functional;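 further: measured as one member of a kinome-wide kinase profiling panel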
Chain of SRSF protein kinase 1 (Q96SB4 whole entry): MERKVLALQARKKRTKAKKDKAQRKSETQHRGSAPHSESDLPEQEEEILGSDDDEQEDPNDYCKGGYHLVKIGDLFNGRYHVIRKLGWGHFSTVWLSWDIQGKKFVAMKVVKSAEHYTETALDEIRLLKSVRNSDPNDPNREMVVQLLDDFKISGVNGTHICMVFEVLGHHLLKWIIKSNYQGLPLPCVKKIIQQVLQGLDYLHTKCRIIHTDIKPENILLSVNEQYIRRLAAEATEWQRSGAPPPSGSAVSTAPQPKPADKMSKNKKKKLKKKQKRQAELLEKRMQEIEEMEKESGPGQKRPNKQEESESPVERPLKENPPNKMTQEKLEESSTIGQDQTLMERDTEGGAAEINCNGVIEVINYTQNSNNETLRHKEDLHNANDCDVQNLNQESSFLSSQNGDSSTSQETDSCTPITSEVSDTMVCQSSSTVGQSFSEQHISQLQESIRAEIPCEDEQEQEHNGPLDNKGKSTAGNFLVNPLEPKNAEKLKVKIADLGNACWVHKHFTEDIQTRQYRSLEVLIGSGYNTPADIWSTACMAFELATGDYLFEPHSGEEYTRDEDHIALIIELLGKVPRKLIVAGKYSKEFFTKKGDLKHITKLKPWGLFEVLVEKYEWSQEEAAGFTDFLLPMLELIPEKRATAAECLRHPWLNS

[5] = biological target: Calcium/calmodulin-dependent protein kinase type II subunit delta (Homo sapiens, UniProt Q13557); assay type: functional
[6] = biological target: Fibroblast growth factor receptor 1 (Homo sapiens, UniProt P11362); assay type: functional
Chain of Fibroblast growth factor receptor 1 (P11362 whole entry, canonical isoform): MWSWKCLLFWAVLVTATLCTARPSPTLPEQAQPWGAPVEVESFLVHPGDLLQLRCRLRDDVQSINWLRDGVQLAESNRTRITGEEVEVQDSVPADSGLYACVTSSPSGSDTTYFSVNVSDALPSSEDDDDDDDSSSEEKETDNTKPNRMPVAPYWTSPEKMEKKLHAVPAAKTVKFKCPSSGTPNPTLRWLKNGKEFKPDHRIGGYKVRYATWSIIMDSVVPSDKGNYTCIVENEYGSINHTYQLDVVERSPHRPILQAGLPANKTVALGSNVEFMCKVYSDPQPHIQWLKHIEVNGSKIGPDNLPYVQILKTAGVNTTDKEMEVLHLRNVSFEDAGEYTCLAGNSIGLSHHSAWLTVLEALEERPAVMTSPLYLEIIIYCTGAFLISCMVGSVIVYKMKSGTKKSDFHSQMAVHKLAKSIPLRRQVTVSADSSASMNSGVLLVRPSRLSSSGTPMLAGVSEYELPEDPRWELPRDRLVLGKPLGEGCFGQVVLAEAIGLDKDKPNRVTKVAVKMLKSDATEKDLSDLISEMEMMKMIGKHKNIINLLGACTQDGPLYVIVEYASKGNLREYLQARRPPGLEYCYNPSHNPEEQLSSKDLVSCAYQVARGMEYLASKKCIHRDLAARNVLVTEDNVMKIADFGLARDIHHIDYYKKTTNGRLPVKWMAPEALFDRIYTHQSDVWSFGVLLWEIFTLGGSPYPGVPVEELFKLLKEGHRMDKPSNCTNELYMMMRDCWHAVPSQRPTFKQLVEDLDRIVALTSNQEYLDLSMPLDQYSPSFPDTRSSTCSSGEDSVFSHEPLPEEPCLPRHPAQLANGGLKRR

[7] = biological target: Casein kinase I isoform gamma-1 (Homo sapiens, UniProt Q9HCP0); assay type: functional;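 further: measured as the CSNK1G1 member of a kinome profiling panel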
Chain of Casein kinase I isoform gamma-1 (Q9HCP0 whole entry, canonical isoform): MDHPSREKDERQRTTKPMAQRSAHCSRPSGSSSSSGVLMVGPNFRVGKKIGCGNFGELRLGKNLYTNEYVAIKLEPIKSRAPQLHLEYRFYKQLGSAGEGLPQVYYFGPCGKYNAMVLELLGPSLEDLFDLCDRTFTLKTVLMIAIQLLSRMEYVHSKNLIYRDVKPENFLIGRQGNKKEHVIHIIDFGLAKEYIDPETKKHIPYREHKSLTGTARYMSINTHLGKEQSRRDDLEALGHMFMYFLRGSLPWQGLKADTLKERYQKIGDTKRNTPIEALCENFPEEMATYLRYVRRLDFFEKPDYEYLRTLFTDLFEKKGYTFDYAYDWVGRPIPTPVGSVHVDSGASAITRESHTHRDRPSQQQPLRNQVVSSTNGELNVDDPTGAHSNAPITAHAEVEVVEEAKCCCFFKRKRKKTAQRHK

[8] = biological target: Serine/threonine-protein kinase TAO1 (Homo sapiens, UniProt Q7L7X3); assay type: functional
Chain of Serine/threonine-protein kinase TAO1 (Q7L7X3 whole entry): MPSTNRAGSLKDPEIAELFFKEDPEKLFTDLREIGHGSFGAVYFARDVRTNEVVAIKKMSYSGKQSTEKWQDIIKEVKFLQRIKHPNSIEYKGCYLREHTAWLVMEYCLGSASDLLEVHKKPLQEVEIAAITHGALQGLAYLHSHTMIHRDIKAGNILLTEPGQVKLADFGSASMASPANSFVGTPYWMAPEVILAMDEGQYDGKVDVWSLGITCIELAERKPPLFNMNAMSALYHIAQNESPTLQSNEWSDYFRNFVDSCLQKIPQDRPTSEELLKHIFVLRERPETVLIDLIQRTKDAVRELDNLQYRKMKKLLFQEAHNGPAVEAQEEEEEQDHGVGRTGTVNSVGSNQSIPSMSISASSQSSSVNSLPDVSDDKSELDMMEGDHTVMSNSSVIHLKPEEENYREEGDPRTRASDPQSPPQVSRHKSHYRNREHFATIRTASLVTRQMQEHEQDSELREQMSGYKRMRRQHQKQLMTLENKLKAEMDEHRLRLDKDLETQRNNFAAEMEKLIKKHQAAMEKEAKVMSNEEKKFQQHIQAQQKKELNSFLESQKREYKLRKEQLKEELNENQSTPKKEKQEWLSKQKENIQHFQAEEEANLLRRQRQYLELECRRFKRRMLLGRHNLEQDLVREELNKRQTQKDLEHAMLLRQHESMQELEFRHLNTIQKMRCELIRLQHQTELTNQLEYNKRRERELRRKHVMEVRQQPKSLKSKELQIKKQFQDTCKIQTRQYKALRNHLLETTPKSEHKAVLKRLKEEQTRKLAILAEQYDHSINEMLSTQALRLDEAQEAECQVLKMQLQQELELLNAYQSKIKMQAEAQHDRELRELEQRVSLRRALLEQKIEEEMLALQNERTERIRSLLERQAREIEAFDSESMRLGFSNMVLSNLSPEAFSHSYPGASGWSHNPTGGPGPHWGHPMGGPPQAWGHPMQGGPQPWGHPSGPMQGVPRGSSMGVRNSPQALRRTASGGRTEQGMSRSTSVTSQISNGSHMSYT

[9] = biological target: Homeodomain-interacting protein kinase 2 (Homo sapiens, UniProt Q9H2X6); assay type: functional;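 further: measured within a kinome-wide kinase profiling panel, HIPK2 being one panel member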
[10] = biological target: Mitogen-activated protein kinase kinase kinase 20 (Homo sapiens, UniProt Q9NYL2); assay type: functional
[11] = biological target: Hepatocyte growth factor receptor (Homo sapiens, UniProt P08581); assay type: functional;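 further: kinase panel profiling across the kinome, with MET as the panel member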
Chain of Hepatocyte growth factor receptor (P08581 whole entry): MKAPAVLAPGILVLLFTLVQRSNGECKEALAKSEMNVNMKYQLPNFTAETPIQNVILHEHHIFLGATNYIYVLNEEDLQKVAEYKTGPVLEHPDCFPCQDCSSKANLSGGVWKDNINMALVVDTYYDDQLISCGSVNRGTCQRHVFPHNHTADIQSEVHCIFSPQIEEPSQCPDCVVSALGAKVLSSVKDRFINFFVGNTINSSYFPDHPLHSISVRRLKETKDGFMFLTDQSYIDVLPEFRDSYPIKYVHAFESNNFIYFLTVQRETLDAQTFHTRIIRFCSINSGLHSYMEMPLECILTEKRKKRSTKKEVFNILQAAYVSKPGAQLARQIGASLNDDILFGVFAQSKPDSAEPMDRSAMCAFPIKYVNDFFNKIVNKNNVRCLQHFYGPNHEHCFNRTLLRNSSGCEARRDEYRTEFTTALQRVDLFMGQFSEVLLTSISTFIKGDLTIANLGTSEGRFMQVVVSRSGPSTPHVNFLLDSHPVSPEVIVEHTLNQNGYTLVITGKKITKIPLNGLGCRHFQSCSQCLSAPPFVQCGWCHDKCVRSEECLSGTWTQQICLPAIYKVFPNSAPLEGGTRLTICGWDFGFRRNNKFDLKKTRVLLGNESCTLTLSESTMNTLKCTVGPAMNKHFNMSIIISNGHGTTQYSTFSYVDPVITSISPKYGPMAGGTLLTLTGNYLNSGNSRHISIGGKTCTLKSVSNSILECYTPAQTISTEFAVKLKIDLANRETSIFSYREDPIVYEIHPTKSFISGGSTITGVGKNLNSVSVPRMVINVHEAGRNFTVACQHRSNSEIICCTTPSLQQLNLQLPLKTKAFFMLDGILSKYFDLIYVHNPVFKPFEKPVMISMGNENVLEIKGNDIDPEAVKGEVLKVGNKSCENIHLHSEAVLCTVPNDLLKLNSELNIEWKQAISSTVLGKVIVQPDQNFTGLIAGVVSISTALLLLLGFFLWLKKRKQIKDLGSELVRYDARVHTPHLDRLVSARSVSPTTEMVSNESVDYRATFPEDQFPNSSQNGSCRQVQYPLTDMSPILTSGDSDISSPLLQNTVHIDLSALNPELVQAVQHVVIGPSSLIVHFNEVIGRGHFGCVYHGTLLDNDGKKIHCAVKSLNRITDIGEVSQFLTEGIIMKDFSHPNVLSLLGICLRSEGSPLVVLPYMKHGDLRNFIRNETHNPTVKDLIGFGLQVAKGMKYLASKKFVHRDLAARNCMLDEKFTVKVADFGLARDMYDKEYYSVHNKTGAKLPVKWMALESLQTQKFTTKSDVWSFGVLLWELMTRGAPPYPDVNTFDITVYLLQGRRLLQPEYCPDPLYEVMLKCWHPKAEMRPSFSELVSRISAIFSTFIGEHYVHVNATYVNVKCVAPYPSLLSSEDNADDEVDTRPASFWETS

[12] = biological target: MAP kinase-activated protein kinase 3 (Homo sapiens, UniProt Q16644); assay type: functional;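 further: value comes from a kinome-wide profiling panel in which MAPKAPK3 is one of the panel members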
Chain of MAP kinase-activated protein kinase 3 (Q16644 whole entry): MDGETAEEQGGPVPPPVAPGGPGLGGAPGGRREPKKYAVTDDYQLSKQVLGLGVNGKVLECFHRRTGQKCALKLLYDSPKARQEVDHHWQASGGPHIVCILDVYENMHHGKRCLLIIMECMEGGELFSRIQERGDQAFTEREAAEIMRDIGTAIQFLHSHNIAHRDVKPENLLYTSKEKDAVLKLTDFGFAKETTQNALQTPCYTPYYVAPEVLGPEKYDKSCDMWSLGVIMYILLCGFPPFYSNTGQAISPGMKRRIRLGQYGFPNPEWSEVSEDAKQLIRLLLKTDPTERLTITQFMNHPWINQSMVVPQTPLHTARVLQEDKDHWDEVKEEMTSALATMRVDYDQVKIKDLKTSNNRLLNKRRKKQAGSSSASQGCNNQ

[13] = biological target: T1, Serine/threonine-protein kinase Chk1 (Homo sapiens, UniProt O14757); assay type: functional;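 further: measured as one member of a kinome-wide kinase profiling panel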
T1 sequence (O14757 whole entry): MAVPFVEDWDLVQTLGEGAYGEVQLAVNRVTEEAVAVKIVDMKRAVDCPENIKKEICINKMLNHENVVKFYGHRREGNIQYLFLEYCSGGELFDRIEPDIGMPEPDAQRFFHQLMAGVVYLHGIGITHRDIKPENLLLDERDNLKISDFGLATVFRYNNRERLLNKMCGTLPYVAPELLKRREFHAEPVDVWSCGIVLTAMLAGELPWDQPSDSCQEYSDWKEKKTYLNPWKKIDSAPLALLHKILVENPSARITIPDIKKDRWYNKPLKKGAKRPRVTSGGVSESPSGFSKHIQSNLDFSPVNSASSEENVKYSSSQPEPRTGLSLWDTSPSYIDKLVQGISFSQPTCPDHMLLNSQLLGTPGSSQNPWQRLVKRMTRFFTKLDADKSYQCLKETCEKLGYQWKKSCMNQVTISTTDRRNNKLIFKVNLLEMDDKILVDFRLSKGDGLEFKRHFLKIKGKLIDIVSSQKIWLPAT

[14] = biological target: Vascular endothelial growth factor receptor 2 (Homo sapiens, UniProt P35968); assay type: functional
Ephrin type-A receptor 2 = Ephrin type-A receptor 2 (Homo sapiens, UniProt P29317); assay type: functional;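 further: EPHA2 tested as one member of a kinome-wide kinase panel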
[15] = biological target: Insulin-like growth factor 1 receptor (Homo sapiens, UniProt P08069); experiment: Navigating the Kinome. Panel member name: IGF1R; assay type: functional
[16] = biological target: Protein kinase C iota type (Homo sapiens, UniProt P41743); assay type: functional;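 further: measured within a kinome-wide kinase panel, PRKCI as panel member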
[17] = biological target: Interleukin-1 receptor-associated kinase 4 (Homo sapiens, UniProt Q9NWZ3); assay type: functional
[18] = biological target: RAC-alpha serine/threonine-protein kinase (Homo sapiens, UniProt P31749); assay type: functional;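 further: AKT1 affinity measured as one member of a kinome-wide kinase profiling panel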
[19] = biological target: STE20-like serine/threonine-protein kinase (Homo sapiens, UniProt Q9H2G2); assay type: functional
[20] = biological target: cAMP-dependent protein kinase catalytic subunit alpha (Homo sapiens, UniProt P17612); assay type: functional
[21] = biological target: Tyrosine-protein kinase FRK (Homo sapiens, UniProt P42685); assay type: functional;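 further: FRK tested as one member of a kinome panel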
[22] = growth suppression of beta-catenin-knockout colon cells, dose response, cell-based, HCT116, human colon tumor (AID 1045); assay type: functional;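 further: HCT116 colon tumor cells with beta catenin knocked out; cells exposed to compound for 60 hours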
Caspase-3 = biological target: T2, Caspase-3 (Homo sapiens, UniProt P42574); experiment: Dose-response confirmation of uHTS inhibitor hits of Sentrin-Specific Protease 8 in a Caspase-3 Fluorescence assay.; assay type: functional
T2 sequence (P42574 whole entry): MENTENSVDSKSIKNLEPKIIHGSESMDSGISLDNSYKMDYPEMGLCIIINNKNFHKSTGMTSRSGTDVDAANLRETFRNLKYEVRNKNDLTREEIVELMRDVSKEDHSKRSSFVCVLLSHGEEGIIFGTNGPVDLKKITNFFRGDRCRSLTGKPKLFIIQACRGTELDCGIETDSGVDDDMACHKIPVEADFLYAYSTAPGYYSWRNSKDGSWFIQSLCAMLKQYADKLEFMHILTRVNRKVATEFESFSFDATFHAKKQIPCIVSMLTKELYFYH

Estrogen receptor beta = Estrogen receptor beta (Homo sapiens, UniProt Q92731); experiment: ERβ–SRC-3 coactivator interaction inhibitors, confirmation, orthogonal assay, biochemical, ELISA, streptavidin-HRP readout (AID 1060)
Ephrin type-A receptor 4 = Ephrin type-A receptor 4 (Mus musculus, UniProt Q03137); experiment: inhibitors of EphA4 binding to KYL peptide, primary screen, biochemical, colorimetric, mouse EphA4 (AID 689); assay type: functional
Albumin = Albumin (Bos taurus, UniProt P02769); experiment: Counterscreen for inhibitors of T-cell receptor (TCR)-CD3 interaction: Fluorescence-based biochemical high throughput dose response assay to identify inhibitors of T-cell receptor (TCR)-CD3 interaction using a TAMRA-labeled BSA probe.; assay type: functional
[23] = biological target: RNA-editing ligase 1, mitochondrial (Trypanosoma brucei brucei, UniProt P86926); experiment: TbREL1 ligase inhibitors, dose response, biochemical, fluorescence, Trypanosoma brucei (AID 1117295); assay type: functional
[24] = biological target: Sphingosine 1-phosphate receptor 1 (Homo sapiens, UniProt P21453); assay type: functional;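 further: Tango beta-arrestin reporter U2OS cells stimulated with S1P near its EC80; inhibitor potency meaning antagonism of receptor activation by the natural agonist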
Vero = Vero cell cytotoxicity, cytotoxicity control for flavivirus capping enzyme inhibitors (AID 588742); assay type: functional; conditions: Chlorocebus sabaeus
Genome polyprotein = Genome polyprotein (dengue virus type 2, UniProt P29990); experiment: Dengue-2 NS5 methyltransferase inhibitors, primary screen, biochemical, confirmation dose response (AID 588689); assay type: functional
Fatty acid synthase = Fatty acid synthase (Homo sapiens, UniProt P49327); experiment: FAS thioesterase domain inhibitors, dose response, biochemical, endpoint fluorescence intensity, uHTS hits (AID 624327); assay type: functional;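 further: fluorescence from hydrolysis of an O-methyl fluorescein acyl ester substrate by the enzyme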
Paired box protein Pax-8 = Paired box protein Pax-8 (Homo sapiens, UniProt Q06710); experiment: inhibitors of PAX8-driven TPO luciferase reporter, dose response, RMG-I cells, cherry-pick (AID 687027); assay type: functional, cell-based;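 further: luciferase reporter driven by Pax8 target thyroperoxidase promoter measured by SteadyGlo luminescence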

Chain of Phosphorylase b kinase gamma catalytic chain, liver/testis isoform (P15735 whole entry, canonical isoform): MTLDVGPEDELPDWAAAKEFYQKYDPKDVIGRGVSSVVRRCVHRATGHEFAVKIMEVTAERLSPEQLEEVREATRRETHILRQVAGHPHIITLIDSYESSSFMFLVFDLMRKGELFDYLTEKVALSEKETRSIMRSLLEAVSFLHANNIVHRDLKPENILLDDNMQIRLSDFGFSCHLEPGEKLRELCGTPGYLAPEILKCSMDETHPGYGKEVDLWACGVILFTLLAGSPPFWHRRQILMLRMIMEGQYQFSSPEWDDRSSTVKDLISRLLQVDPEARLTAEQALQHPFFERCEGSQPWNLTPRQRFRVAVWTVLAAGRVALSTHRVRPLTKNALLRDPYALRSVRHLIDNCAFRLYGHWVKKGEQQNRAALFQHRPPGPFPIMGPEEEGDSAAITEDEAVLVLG

Ki [1]: 158 nM (active)
Ki [2]: > 10 µM (inactive)
Ki [3]: 50.1 nM (active)
Ki [4]: 50.1 nM (active)
Ki (SRSF protein kinase 1): 1 µM (active)
Ki [5]: 79.4 nM (active)
Ki [6]: 25.1 nM (active)
Ki [7]: 2.51 µM (active)
Ki [8]: 1.58 µM (active)
Ki [9]: 126 nM (active)
Ki [10]: 200 nM (active)
Ki [11]: 200 nM (active)
Ki [12]: 7.94 µM (active)
Ki [13]: 158 nM (active)
Ki [14]: 25.1 nM (active)
Ki (Ephrin type-A receptor 2): 794 nM (active)
Ki [15]: > 2 µM (inactive)
Ki [16]: > 5.01 µM (inactive)
Ki [17]: 1.58 µM (active)
Ki [18]: > 7.94 µM (inactive)
Ki [19]: 126 nM (active)
Ki [20]: 3.98 µM (active)
Ki [21]: 31.6 nM (active)
Structure (SMILES): O=C1Nc2ccc3ncsc3c2C1=CNc1ccc(S(=O)(=O)Nc2ccccn2)cc1

Structure (SMILES): Cc1ccc(NC2=C/C(=N\S(=O)(=O)c3cccs3)c3ccccc3C2=O)c(C)c1
EC50 [22]: 1.08 µM (active)

Structure (SMILES): COc1ccc(/C=N/NC(=O)c2nn(-c3ccccc3)c(=O)c3c(N)scc23)cc1
IC50 (Caspase-3): 2.15 µM (active)

Structure (SMILES): Oc1ccc(-c2cn3c(n2)SCC3)cc1O
IC50 (Estrogen receptor beta): 10.7 µM (not active)
IC50 (Ephrin type-A receptor 4): 42.3 µM (active)
IC50 (Albumin): > 94.1 µM (inactive)
IC50 [23]: > 96.6 µM (inactive)

Structure (SMILES): CC(=O)N(C1=C(Cl)C(=O)c2ccccc2C1=O)C1CCCCC1
IC50 [24]: 9.5 µM (active)
CC50 (Vero): 22.4 µM (active)
IC50 (Genome polyprotein): 38.3 µM (active)
IC50 (Fatty acid synthase): 3.02 µM (active)
AC50 (Paired box protein Pax-8): 2.74 µM (active)
